Values of other authors, collected in publication PMC5657425 (Pediatric blood & cancer, 2016).

Tests used:
[1] = tested on: PPTP solid tumor xenografts
[2] = tested on: well-differentiated or dedifferentiated liposarcoma
[3] = tested on: Rh18 xenograft; details: single agent

| SMILES | response of the osteosarcoma panel ([1]; osteosarcoma panel) | objective regressions in twenty six solid tumor models with wild-type TP53 ([1]; prior PPTP testing) | adverse effect in phase 1 and 2 evaluations [2] | stable disease among 20 patients treated ([2]; phase 2, well-differentiated or dedifferentiated liposarcoma) | response of Rh18 [3] |
| --- | --- | --- | --- | --- | --- |
| CCOc1cc(C(C)(C)C)ccc1C1=N[C@@](C)(c2ccc(Cl)cc2)[C@@](C)(c2ccc(Cl)cc2)N1C(=O)N1CCN(CCCS(C)(=O)=O)CC1 [RG7112] | no response | five | thrombocytopenia | 14 |  |
| COc1cc(C(=O)O)ccc1NC(=O)[C@@H]1N[C@@H](CC(C)(C)C)[C@](C#N)(c2ccc(Cl)cc2F)[C@H]1c1cccc(Cl)c1F [RG7388] |  |  |  |  | unresponsive |
